This is an account of results in patent US20260041629A1, “Methods and Systems to Reduce Injury in Treated Tissues” (MileHigh Repro Solutions, LLC, priority 2022, published 2026).

The subject of one data set is boar sperm. Description: Experiment 2: compatibility with sperm in vitro (motility by computer assisted sperm analyzer). Format: cell-based. As to conditions: exposure 3 hours, 37° C. On the procedure: A successful cervical softening agent should be safe for a mammal's tissues and also for sperm used to inseminate the mammal. It was anticipated that the cervical tract and the AI rod will each retain a residue of the solution treatment which may then combine with the semen inside the cervix or uterus. Therefore, experiments were performed using sperm samples from boars to evaluate the toxicity of each proposed treatment and blends.
Extended boar sperm doses (28×10^6/ml; 1 ml) were incubated with each of the miscible solutions at 3 concentrations, 0.1 μL, 0.5 μL, or 1 μL per 1 mL extended sperm, then the sperm with the solution were incubated for 3 hours at 37° C. Motility characteristics were measured via computer assisted sperm analyzer. This experiment was replicated 4 times.

The subject of the next data set is ewe cervices. Nature of the data set: Experiment 1: in vitro efficacy of solution, AI rod passage through excised cervical tracts. As to conditions: ¼ cc rod, tracts treated 1 hour, * = statistically significant improvement over control. On the procedure: Ewe and bison cervical tracts were obtained to assess local responses in living tissue thereby modeling in vivo response to a solution. Tracts were treated for 1 hour with the respective solution using an absorbent matrix applicator, then ¼ cc AI rods were passed through the cervix, mimicking trans-cervical artificial insemination. A total of […] tracts were utilized with each of 13 treatments tested in 11 replicates. The estimated number of rings passed was recorded. Post-treatment tracts were dissected, then length and cervical anatomy were recorded, and relationships between cervical structure, ring number and position were and analyzed. Ring passage data was transformed into a percentage of rings passed to normalize the data and to allow comparison across an undefined variety of tissues, breeds, ages, and other etiological differences. A paired T-test indicated trends in increased passage of AI rod (P=0.064) when treating the cervix versus control.

Consider `CCCC[N+]1(C)[C@@H]2C[C@@H](OC(=O)[C@H](CO)c3ccccc3)C[C@H]1[C@@H]1O[C@@H]12` (stereo partly shown) [Extract F, hyoscine butylbromide], for which the “Sperm motility, motile percentage of the total number of spermatozoa” value in the data set on boar sperm (dose 0.1 μL in 1 mL sperm) came out at 90.7%; with boar sperm (dose 0.5 μL in 1 mL sperm), 93.3%; with boar sperm (dose 1 μL in 1 mL sperm), 91.8%. Besides, the “Avg. % Cervical rings passed” value in the data set on ewe cervices is listed as 50.02* %.
